From patent publication USRE38257E1, “Piperdine derivatives and hypotensives containing the same” (Ajinomoto Co., Inc., priority 1988, dated 2003)

Test system: male spontaneously hypertensive rats
Test: Decrease in systolic blood pressure in spontaneously hypertensive rats after intravenous bolus injection, indirect (tail-cuff) method
Assay type: in vivo, rat
Settings: for Decrease in systolic blood pressure (mmHg) time after administration (hour) 0.5: 0.5 hour after administration; for Decrease in systolic blood pressure (mmHg) time after administration (hour) 4: 4 hours after administration
Description: As test animals, four male spontaneously hypertensive rats (weight 400 to 440 g) that were sufficiently adapted for feeding and in which hypertension was confirmed were used.
Physiological saline aqueous solution containing 2.5% Nicolle and 2.5% ethanol of sample was intravenously administered by bolus injection at a dose of 1 ml per 1 kg of body weight. Systolic blood pressure after administration was measured by the indirect (tail-cuff) method.

Compound: CCCCCCCCCC(=O)N1CCC(=C2c3ccccc3C=Cc3ccccc32)CC1 [Example 164, 1-Decanolyl-4-(5H-dibenzo[a,d]cyclohepten-5-ylidene)piperidine]
- Decrease in systolic blood pressure (mmHg) time after administration (hour) 0.5 (dose 10 mg/kg i.v. bolus): −91 mmHg
- Decrease in systolic blood pressure (mmHg) time after administration (hour) 4 (dose 10 mg/kg i.v. bolus): −22 mmHg

Compound: CC(=O)OCC1(CCCCN2CCC(=C3c4ccccc4C=Cc4ccccc43)CC2)CCCCC1.Cl [Example 273, 1-Acetoxymethyl-1-(4-(4-(5H-dibenzo[a,d]cyclohepten-5-ylidene)-1-piperidinyl)-1-butyl)cyclohexane hydrochloride]
- Decrease in systolic blood pressure (mmHg) time after administration (hour) 0.5 (dose 10 mg/kg i.v. bolus): −37 mmHg
- Decrease in systolic blood pressure (mmHg) time after administration (hour) 4 (dose 10 mg/kg i.v. bolus): 5 mmHg

Compound: COc1cccc(CCCN2CCC(=C3c4ccccc4C=Cc4ccccc43)CC2)c1OC.Cl [Example 286, 3-(4-(5H-Dibenzo[a,d]cyclohepten-5-ylidene)-1-piperidinyl)-1-(2,3-dimethoxyphenyl)propane hydrochloride]
- Decrease in systolic blood pressure (mmHg) time after administration (hour) 0.5 (dose 10 mg/kg i.v. bolus): −134 mmHg
- Decrease in systolic blood pressure (mmHg) time after administration (hour) 4 (dose 10 mg/kg i.v. bolus): −40 mmHg

Compound: Cl.OC1CCCC(CCCCN2CCC(=C3c4ccccc4C=Cc4ccccc43)CC2)C1 (stereo not shown) [Example 300, 1-(1-(3-Hydroxyoxy)cyclohexyl)-4-(4-(5H-dibenzo[a,d]cyclohepten-5-ylidene)-1-piperidinyl)butane hydrochloride]
- Decrease in systolic blood pressure (mmHg) time after administration (hour) 0.5 (dose 10 mg/kg i.v. bolus): −97 mmHg
- Decrease in systolic blood pressure (mmHg) time after administration (hour) 4 (dose 10 mg/kg i.v. bolus): −22 mmHg

Compound: C1=Cc2ccccc2C(=C2CCN(Cc3ccccc3)CC2)c2ccccc21.Cl [Example 12, 1-Benzyl-4-(5H-dibenzo[a,d]cyclohepten-5-ylidene)piperidine hydrochloride]
- Decrease in systolic blood pressure (mmHg) time after administration (hour) 0.5 (dose 10 mg/kg i.v. bolus): −27 mmHg
- Decrease in systolic blood pressure (mmHg) time after administration (hour) 4 (dose 10 mg/kg i.v. bolus): 1 mmHg

Compound: CCCCCCCCCCN1CCC(=C2c3ccccc3C=Cc3ccccc32)CC1.Cl [Example 3, 1-Decyl-4-(5H-dibenzo[a,d]cyclohepten-5-ylidene)piperidine hydrochloride]
- Decrease in systolic blood pressure (mmHg) time after administration (hour) 0.5 (dose 3 mg/kg i.v. bolus): −110 mmHg
- Decrease in systolic blood pressure (mmHg) time after administration (hour) 4 (dose 3 mg/kg i.v. bolus): −22 mmHg

Compound: C1=Cc2ccccc2C(=C2CCN(CCOCC3CCCCC3)CC2)c2ccccc21.Cl [Example 279]
- Decrease in systolic blood pressure (mmHg) time after administration (hour) 0.5 (dose 3 mg/kg i.v. bolus): −83 mmHg
- Decrease in systolic blood pressure (mmHg) time after administration (hour) 4 (dose 3 mg/kg i.v. bolus): −24 mmHg

Compound: Cl.Cl.Nc1ccccc1CCCN1CCC(=C2c3ccccc3C=Cc3ccccc32)CC1 [Example 251, 1-(2-Aminophenyl)-3-(4-(5H-Dibenzo[a,d]cyclohepten-5-ylidene)-1-piperidinyl)propane dihydrochloride]
- Decrease in systolic blood pressure (mmHg) time after administration (hour) 0.5 (dose 10 mg/kg i.v. bolus): −110 mmHg
- Decrease in systolic blood pressure (mmHg) time after administration (hour) 4 (dose 10 mg/kg i.v. bolus): −24 mmHg

Compound: Cl.Clc1cccc(CN2CCC(=C3c4ccccc4C=Cc4ccccc43)CC2)c1 [Example 129, 1-(3-Chlorobenzyl)-4-(5H-Dibenzo[a,d]cyclohepten-5-ylidene)piperidine hydrochloride]
- Decrease in systolic blood pressure (mmHg) time after administration (hour) 0.5 (dose 10 mg/kg i.v. bolus): −17 mmHg
- Decrease in systolic blood pressure (mmHg) time after administration (hour) 4 (dose 10 mg/kg i.v. bolus): −1 mmHg

Compound: CCCCC(O)(CCCN1CCC(=C2c3ccccc3C=Cc3ccccc32)CC1)c1ccc(OC)c(OC)c1.Cl (stereo not shown) [Example 207, 1-butyl-4-(4-(5H-dibenzo[a,d]cyclohepten-5-ylidene)-1-piperidinyl)-1-(3,4-dimethoxy)phenyl-1-hydroxybutane hydroxybutane hydrochloride]
- Decrease in systolic blood pressure (mmHg) time after administration (hour) 0.5 (dose 10 mg/kg i.v. bolus): −98 mmHg
- Decrease in systolic blood pressure (mmHg) time after administration (hour) 4 (dose 10 mg/kg i.v. bolus): −43 mmHg

Compound: Cc1cccc(CN2CCC(=C3c4ccccc4C=Cc4ccccc43)CC2)c1.Cl [Example 132, 4-(5H-Dibenzo[a,d]cyclohepten-5-ylidene)-1-(3-methylbenyl)piperidine hydrochloride]
- Decrease in systolic blood pressure (mmHg) time after administration (hour) 0.5 (dose 10 mg/kg i.v. bolus): −106 mmHg
- Decrease in systolic blood pressure (mmHg) time after administration (hour) 4 (dose 10 mg/kg i.v. bolus): −5 mmHg
